The results in this text go back to patent publication US8501770B2 (ArQule, Inc., priority 2009, dated 2013).

Broadly, the IC50 is the concentration at which inhibition is half-maximal.

Sequence of Full-length inactive AKT1 (P31749 whole entry): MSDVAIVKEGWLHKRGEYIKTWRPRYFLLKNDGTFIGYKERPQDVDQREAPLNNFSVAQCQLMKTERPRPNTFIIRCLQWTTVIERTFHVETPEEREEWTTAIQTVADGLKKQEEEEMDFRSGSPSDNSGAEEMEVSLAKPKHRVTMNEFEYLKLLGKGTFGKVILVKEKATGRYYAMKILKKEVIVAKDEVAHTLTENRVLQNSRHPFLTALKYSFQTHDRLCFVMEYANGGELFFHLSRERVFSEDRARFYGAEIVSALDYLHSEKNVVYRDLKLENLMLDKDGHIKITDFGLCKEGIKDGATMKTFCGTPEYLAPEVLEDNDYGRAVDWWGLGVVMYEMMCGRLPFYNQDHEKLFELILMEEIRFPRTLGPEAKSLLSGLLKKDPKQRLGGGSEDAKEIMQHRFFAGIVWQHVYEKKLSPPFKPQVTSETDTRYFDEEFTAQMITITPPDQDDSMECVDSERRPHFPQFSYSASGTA

The target of this assay is Full-length inactive AKT1 (Homo sapiens, UniProt P31749). The assay is described as follows: Inactive Akt Alpha Screen Assay. Format: biochemical. The note with it: values not marked with "*"; read-out: Akt1 IC50, (AlphaScreen). Summed up:
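AlphaScreen read-out (excitation 640 nm, emission 570 nm) after 90 min incubation at room temperature in the dark. Signal comes from crosstide phosphorylation by AKT1, which was activated by added PDK1, MAPKAPK2, ATP and lipid vesicles, captured via phospho-AKT substrate antibody and streptavidin beads.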
(In general: Bead proximity is the source of the signal in Alpha formats.)
As to `Cc1ccc2nc(-c3cccnc3N)n(-c3ccc(CNC(=O)c4cccc(F)c4)cc3)c2n1` [Example 247, N-(4-(2-(2-aminopyridin-3-yl)-5-methyl-3H-imidazo[4,5-b]pyridin-3-yl)benzyl)-3-fluorobenzamide], the IC50 was 16 nM. With `CC(=O)Nc1cccc(C(=O)NCc2ccc(-n3c(-c4cccnc4N)nc4ccc(C)nc43)cc2)c1` [Example 248, 3-acetamido-N-(4-(2-(2-aminopyridin-3-yl)-5-methyl-3H-imidazo[4,5-b]pyridin-3-yl)benzyl)benzamide], the IC50 is 28 nM. `CC(=O)Nc1ccc(C(=O)NCc2ccc(-n3c(-c4cccnc4N)nc4ccc(C)nc43)cc2)cc1` [Example 249, 4-acetamido-N-(4-(2-(2-aminopyridin-3-yl)-5-methyl-3H-imidazo[4,5-b]pyridin-3-yl)benzyl)benzamide]: the IC50 came out at 25 nM. With `CC(C)(C)OC(=O)NCc1ccc(-n2c(-c3cccnc3N)nc3cc(-c4cccnc4)cnc32)cc1` [Example 250, tert-butyl 4-(2-(2-aminopyridin-3-yl)-6-(pyridin-3-yl)-3H-imidazo[4,5-b]pyridin-3-yl)benzylcarbamate], the IC50 turned out to be 200 nM. Next, `Cn1cccc1C(=O)NCc1ccc(-n2c(-c3cccnc3N)nc3cc(-c4cccnc4)cnc32)cc1` [Example 252, N-(4-(2-(2-aminopyridin-3-yl)-6-(pyridin-3-yl)-3H-imidazo[4,5-b]pyridin-3-yl)benzyl)-1-methyl-1H-pyrrole-2-carboxamide]: 170 nM; `CC(=O)Nc1ccc(-c2ccc3nc(-c4cccnc4N)n(-c4ccc(NC(=O)c5ccccc5)cc4)c3n2)cc1` [Example 253, N-(4-(5-(4-acetamidophenyl)-2-(2-aminopyridin-3-yl)-3H-imidazo[4,5-b]pyridin-3-yl)phenyl)benzamide]: 27 nM; `Nc1ncccc1-c1nc2ccc(-c3ccccc3)nc2n1-c1ccc(NC(=O)c2ccccc2)cc1` [Example 254, N-(4-(2-(2-aminopyridin-3-yl)-5-phenyl-3H-imidazo[4,5-b]pyridin-3-yl)phenyl)benzamide]: 82 nM.

For `Nc1ncccc1-c1nc2ccc(-c3cccnc3)nc2n1-c1ccc(NC(=O)c2ccccc2)cc1` [Example 255, N-(4-(2-(2-aminopyridin-3-yl)-5-(pyridin-3-yl)-3H-imidazo[4,5-b]pyridin-3-yl)phenyl)benzamide], the IC50 stood at 12 nM. Under `Nc1ncccc1-c1nc2ccc(-c3ccncc3)nc2n1-c1ccc(NC(=O)c2ccccc2)cc1` [Example 256, N-(4-(2-(2-aminopyridin-3-yl)-5-(pyridin-4-yl)-3H-imidazo[4,5-b]pyridin-3-yl)phenyl)benzamide] stands 19 nM; under `Nc1ncccc1-c1nc2ccc(-c3cccnc3)nc2n1-c1ccc(CC(=O)Nc2ccccc2)cc1` [Example 257, 2-(4-(2-(2-aminopyridin-3-yl)-5-(pyridin-3-yl)-3H-imidazo[4,5-b]pyridin-3-yl)phenyl)-N-phenylacetamide], 46 nM. Regarding `CC(=O)Nc1cccc(NC(=O)Cc2ccc(-n3c(-c4cccnc4N)nc4ccc(-c5cccnc5)nc43)cc2)c1` [Example 258, N-(3-acetamidophenyl)-2-(4-(2-(2-aminopyridin-3-yl)-5-(pyridin-3-yl)-3H-imidazo[4,5-b]pyridin-3-yl)phenyl)acetamide], the IC50 was found to be 17 nM. As for `CC(=O)Nc1ccc(-c2ccc3nc(-c4cccnc4N)n(-c4ccc(CNC(=O)OC(C)(C)C)cc4)c3n2)cc1` [Example 259, tert-butyl 4-(5-(4-acetamidophenyl)-2-(2-aminopyridin-3-yl)-3H-imidazo[4,5-b]pyridin-3-yl)benzylcarbamate], the IC50 is 530 nM.

As for `Cc1ccc2cc(NC(=O)Cc3ccc(-n4c(-c5cccnc5N)nc5ccc(-c6cccnc6)nc54)cc3)ccc2n1` [Example 260, 2-(4-(2-(2-aminopyridin-3-yl)-5-(pyridin-3-yl)-3H-imidazo[4,5-b]pyridin-3-yl)phenyl)-N-(2-methylquinolin-6-yl)acetamide], the IC50 worked out at 14 nM.

For `Cc1ccc2nc(-c3cccnc3N)n(-c3ccc(CNC(=O)c4cccn4C)cc3)c2n1` [Example 262, N-(4-(2-(2-aminopyridin-3-yl)-5-methyl-3H-imidazo[4,5-b]pyridin-3-yl)benzyl)-1-methyl-1H-pyrrole-2-carboxamide], the IC50 worked out at 150 nM. `Cc1ccc2cc(C(=O)NCc3ccc(-n4c(-c5cccnc5N)nc5ccc(C)nc54)cc3)ccc2n1` [Example 263, N-(4-(2-(2-aminopyridin-3-yl)-5-methyl-3H-imidazo[4,5-b]pyridin-3-yl)benzyl)-2-methylquinoline-6-carboxamide]: the IC50 was 110 nM. With `Cc1cnc2c(c1)nc(-c1cccnc1N)n2-c1ccc(CNC(=O)c2cccc(F)c2F)cc1` [Example 265, N-(4-(2-(2-aminopyridin-3-yl)-6-methyl-3H-imidazo[4,5-b]pyridin-3-yl)benzyl)-2,3-difluorobenzamide], the IC50 turned out to be 93 nM. With `Cc1cnc2c(c1)nc(-c1cccnc1N)n2-c1ccc(CNC(=O)c2ccc(Cl)c(Cl)c2)cc1` [Example 266, N-(4-(2-(2-aminopyridin-3-yl)-6-methyl-3H-imidazo[4,5-b]pyridin-3-yl)benzyl)-3,4-dichlorobenzamide], the IC50 amounted to 230 nM.

With `Cc1cnc2c(c1)nc(-c1cccnc1N)n2-c1ccc(CNC(=O)c2cccc(C(F)(F)F)c2)cc1` [Example 267, N-(4-(2-(2-aminopyridin-3-yl)-6-methyl-3H-imidazo[4,5-b]pyridin-3-yl)benzyl)-3-(trifluoromethyl)benzamide], the IC50 turned out to be 590 nM. Take `Cc1cnc2c(c1)nc(-c1cccnc1N)n2-c1ccc(CNC(=O)c2cccnc2)cc1` [Example 268, N-(4-(2-(2-aminopyridin-3-yl)-6-methyl-3H-imidazo[4,5-b]pyridin-3-yl)benzyl)nicotinamide]: the IC50 is 590 nM. On to `Cc1cnc2c(c1)nc(-c1cccnc1N)n2-c1ccc(CNC(=O)c2ccc(C)c(C)c2)cc1` [Example 269, N-(4-(2-(2-aminopyridin-3-yl)-6-methyl-3H-imidazo[4,5-b]pyridin-3-yl)benzyl)-3,4-dimethylbenzamide], for which the IC50 was 160 nM.

On to `COC(=O)c1cccc(C(=O)NCc2ccc(-n3c(-c4cccnc4N)nc4cc(C)cnc43)cc2)c1` [Example 270, methyl 3-((4-(2-(2-aminopyridin-3-yl)-6-methyl-3H-imidazo[4,5-b]pyridin-3-yl)benzyl)carbamoyl)benzoate], for which the IC50 came to 240 nM.

In the case of `Cc1cnc2c(c1)nc(-c1cccnc1N)n2-c1ccc(CNC(=O)c2cncnc2)cc1` [Example 271, N-(4-(2-(2-aminopyridin-3-yl)-6-methyl-3H-imidazo[4,5-b]pyridin-3-yl)benzyl)pyrimidine-5-carboxamide], the IC50 was found to be 640 nM. For the compound `Cc1cnc2c(c1)nc(-c1cccnc1N)n2-c1ccc(CNC(=O)c2ccc(Cl)c(C)c2)cc1` [Example 272, N-(4-(2-(2-aminopyridin-3-yl)-6-methyl-3H-imidazo[4,5-b]pyridin-3-yl)benzyl)-4-chloro-3-methylbenzamide], the IC50 was found to be 210 nM. As to `Cc1cnc2c(c1)nc(-c1cccnc1N)n2-c1ccc(CNC(=O)C2CCCC2)cc1` [Example 273, N-(4-(2-(2-aminopyridin-3-yl)-6-methyl-3H-imidazo[4,5-b]pyridin-3-yl)benzyl)cyclopentanecarboxamide], the IC50 amounted to 220 nM. Under `Cc1cnc2c(c1)nc(-c1cccnc1N)n2-c1ccc(CNC(=O)c2cccnc2F)cc1` [Example 274, N-(4-(2-(2-aminopyridin-3-yl)-6-methyl-3H-imidazo[4,5-b]pyridin-3-yl)benzyl)-2-fluoronicotinamide] stands 51000 nM; under `Cc1cnc2c(c1)nc(-c1cccnc1N)n2-c1ccc(CNC(=O)c2ccc(Cl)cc2Cl)cc1` [Example 275, N-(4-(2-(2-aminopyridin-3-yl)-6-methyl-3H-imidazo[4,5-b]pyridin-3-yl)benzyl)-2,4-dichlorobenzamide], 110 nM. As for `Cc1cnc2c(c1)nc(-c1cccnc1N)n2-c1ccc(CNC(=O)c2cncs2)cc1` [Example 276, N-(4-(2-(2-aminopyridin-3-yl)-6-methyl-3H-imidazo[4,5-b]pyridin-3-yl)benzyl)thiazole-5-carboxamide], the IC50 amounted to 780 nM. Regarding `Cc1cc(C)cc(C(=O)NCc2ccc(-n3c(-c4cccnc4N)nc4cc(C)cnc43)cc2)c1` [Example 277, N-(4-(2-(2-aminopyridin-3-yl)-6-methyl-3H-imidazo[4,5-b]pyridin-3-yl)benzyl)-3,5-dimethylbenzamide], the IC50 came to 390 nM. In the case of `Cc1cnc2c(c1)nc(-c1cccnc1N)n2-c1ccc(CNC(=O)c2ccc(C)c(F)c2)cc1` [Example 278, N-(4-(2-(2-aminopyridin-3-yl)-6-methyl-3H-imidazo[4,5-b]pyridin-3-yl)benzyl)-3-fluoro-4-methylbenzamide], the IC50 was 120 nM. In the case of `Cc1cnc2c(c1)nc(-c1cccnc1N)n2-c1ccc(CNC(=O)c2ccc3ncccc3c2)cc1` [Example 279, N-(4-(2-(2-aminopyridin-3-yl)-6-methyl-3H-imidazo[4,5-b]pyridin-3-yl)benzyl)quinoline-6-carboxamide], the IC50 came to 110 nM.

As for `Cc1cnc2c(c1)nc(-c1cccnc1N)n2-c1ccc(CNC(=O)c2ccc(C)s2)cc1` [Example 280, N-(4-(2-(2-aminopyridin-3-yl)-6-methyl-3H-imidazo[4,5-b]pyridin-3-yl)benzyl)-5-methylthiophene-2-carboxamide], the IC50 was 110 nM. As for `Cc1cnc2c(c1)nc(-c1cccnc1N)n2-c1ccc(CNC(=O)c2ccccc2C(F)(F)F)cc1` [Example 281, N-(4-(2-(2-aminopyridin-3-yl)-6-methyl-3H-imidazo[4,5-b]pyridin-3-yl)benzyl)-2-(trifluoromethyl)benzamide], the IC50 came out at 71 nM.

For the compound `Cc1cnc2c(c1)nc(-c1cccnc1N)n2-c1ccc(CNC(=O)c2cccc(Cl)c2)cc1` [Example 282, N-(4-(2-(2-aminopyridin-3-yl)-6-methyl-3H-imidazo[4,5-b]pyridin-3-yl)benzyl)-3-chlorobenzamide], the IC50 is 140 nM.
